Results taken from article PMC6946680, “Modulation of brain cation-Cl^− cotransport via the SPAK kinase inhibitor ZT-1a” (Nature Communications, 2020).
Values joined by “and” are separate entries in the source; they are usually repeats but may differ in a detail not shown here. Identical values can stand only once. Like-named read-outs stand apart in the source and are kept apart here.

How the values were obtained:
C57BL/6J mice = experiment: Kaplan-Meier survival of naive and ischemic stroke mice at 25 mg/kg; format: in vivo, mouse; conditions: for mortality in naive mice: 0-7 days, n = 3; for Days elapsed: Fig S12, single mice
Experimental: We compared the neuroprotective efficacy of Closantel with that of the pan-WNK-kinase inhibitor WNK463. […] Moreover, toxicity of Closantel and ZT-1a at 25 mg/kg in naive and ischemic stroke mice was reflected in Kaplan–Meier survival curves (Supplementary Fig. 12).
Supplemental Fig. 12 Kaplan-Meier survival curve of naïve and ischemic stroke mice treated with […]
Normal naïve C57BL/6J mice, or mice after tMCAO randomly received Closantel or ZT-1a treatment […]
was monitored for 0-7 days post-treatment. No mortality was detected in the naïve mice treated with Closantel or ZT-1a. However, all ischemic stroke mice treated with Closantel died within 2 days, with a […]
median survival of 1 day. […]
days). n = 3 per group (naïve+Closantel or naive+ZT-1a), n = 6 per group (tMCAO+vehicle or tMCAO+Closantel or tMCAO+ZT-1a), *p < 0.05, Log-rank test.

KCC3 pThr1048 = experiment: Pharmacodynamic study, KCC3 phosphorylation in brain of naive mice; format: in vivo, mouse; conditions: for KCC3 phosphorylation (pThr1048) in naive brains: 60 min after administration; for pTh1048 / KCC3: Fig S8a (brain)
Experimental: (§1) To define ZT-1a efficacy in naive mice in vivo, we examined phosphorylation of SPAK, NKCC1, and NCC in kidney, and phosphorylation of SPAK, NKCC1, and KCC3 in brain, after intraperitoneal (i.p.) administration of either ZT-1a (10, 30, 50, and 100 mg/kg) or Closantel (50 mg/kg as a reference). […]
(§2) 5. Pharmacodynamic (PD) study
(§3) Male C57BL/6j wild-type mice (6 weeks old, Charles River Laboratories Edinburgh UK) were treated with ZT-1a (in DMSO, Sigma) by subcutaneous injection at doses of 0, 3, 10, 30, 50 and 100 mg/kg. 50 mg/kg Closantel was administered as a comparative control. Vehicle control mice were treated with an equal volume of DMSO solution. One hour after administration, mice were sacrificed by cervical dislocation, and kidney and brain tissues were rapidly dissected and snap-frozen in liquid nitrogen. Age- […]
(§4) free conditions at the University of Dundee (UK) as described in our recent study1. Animal experiments and breeding were approved by the University of Dundee ethical committee and performed under a […]
(§5) Policy on the Care, Welfare and Treatment of Animals, and regulations set by the University of Dundee and the U.K. Home Office. […]
(§6) Brain and kidney tissues were collected at 60 min post injection, and proteins subjected to immunoblot were probed with antibodies specific for phosphorylated forms of SPAK,

SPAK phosphorylation = experiment: Pharmacodynamic study, SPAK phosphorylation in brain of naive mice; format: in vivo, mouse; conditions: Fig S8a (brain)
Experimental: as §1, §2, §3, §4, §5, §6

KCC3 = experiment: Immunoblot of total KCC3 / Actin in HEK-293 cells transfected with FLAG-KCC3; format: cell-based, human; conditions: Fig S4b
[1] = biological target: panel of 140 recombinant kinases; format: biochemical
Experimental: (§7) Supplementary Table 2. ZT-1a kinase profiling data6.
(§8) ZT-1a was tested at 10 and 1 µM against a panel of 140 recombinant kinases in an enzymatic
(§9) activity-based assay performed by the International Centre for Kinase Profiling in the MRC
(§10) Protein Phosphorylation and Ubiquitylation Unit. Values represent % residual kinase activity

pERK1/2 = experiment: Immunoblot of phospho-ERK1/2 in ischemic mouse brain; format: in vivo; conditions: for pERK/Na K pump (fold veh-CL): Membrane
Text: Cytosol and crude membrane protein
Expressions of Na+-K+ ATPase
respectively. d Densitometric analyses of immunoblots.

pNKCC1 (pThr203/207/212) = experiment: Immunoblot of pNKCC1 in ischemic mouse brain membrane fractions; conditions: for NKCC1 / Na-K pumb / pThr203/207/212 / NKCC1: Fig 8, individual samples
KCC4 pThr926/pThr980 = experiment: Choroid plexus KCC4 phospho-IP/immunoblot in rat IVH model; format: in vivo
[2] = test system: mouse model of ischemic stroke (tMCAO); experiment: Corner test after tMCAO; format: in vivo; conditions: for Corner test (Unilateral turns): Fig 7c, individual mice #1-#7
AMPK (hum) = experiment: Kinase profiling panel; format: biochemical, human
Experimental: as §7, §8, §9, §10

[3] = ZT-1a pharmacokinetic properties in naive mice; format: in vivo, ICR mice; conditions: mouse, plasma; for MRT inf: read-out: MRT(0-∞)
Experimental: 1 Supplemental Table 3. ZT-1a pharmacokinetic (PK) properties in naïve mice.
2 ZT-1a pharmacokinetics were determined following a single 5 mg/kg intravenous (IV) dose and a single 10 mg/kg oral (PO) dose in
3 ICR mice (N = 3 at each time point).
Samples were subjected to drug assay by LC-MS/MS, and data were analyzed by WinNonlin V6.3. Tmax =
5 time of maximum plasma concentration, Cmax = maximum plasma concentration, AUC = area under the curve (measure of exposure),
6 T1/2 = half life, CL = plasma clearance, Vz = volume of distribution, MRT, mean residence time; F = oral bioavailability.

[4] = test system: GSK-3β Ser9 phosphorylation; experiment: Immunoblot of GSK-3β Ser9 phosphorylation in HEK-293 cells; conditions: for GSK3b pSer9 / Actin: Fig S4b
[5] = rat CPe 48 h post IVH + 1a, replicates

SMILES: Cc1cc(C(C#N)c2ccc(Cl)cc2)c(Cl)cc1NC(=O)c1cc(I)cc(I)c1O (stereo not drawn) [Closantel, reference compound]
- mortality of ischemic stroke mice (C57BL/6J mice; 25 mg/kg): 100%
- mortality in naive mice (C57BL/6J mice; 25 mg/kg i.p.): No mortality
- time by which all ischemic stroke mice died (C57BL/6J mice; 25 mg/kg i.p., tMCAO): ≤ 2 days
- median survival of ischemic stroke mice (C57BL/6J mice; 25 mg/kg i.p., tMCAO, n = 6): 1 days
- Days elapsed (C57BL/6J mice; MCAO mice): 1 days and 2 days
- Days elapsed (C57BL/6J mice; mice without MCAO): 7 days
- toxicity in mice at higher doses (C57BL/6J mice; ~25 mg/kg): toxicity
- KCC3 phosphorylation (pThr1048) in naive brains (KCC3 pThr1048): neither drug had reduced
- pTh1048 / KCC3 (KCC3 pThr1048; 50 mg/kg): 0.84 and 0.87 and 0.95 and 0.91
- pSer373 / SPAK (SPAK phosphorylation; 50 mg/kg): 0.54 and 0.68 and 0.62 and 0.52

SMILES: Cc1cc(C(C#N)c2ccc(Cl)cc2)c(Cl)cc1NC(=O)c1cc(Cl)ccc1O (stereo not drawn) [ZT-1a, 5-chloro-N-(5-chloro-4-((4-chlorophenyl)(cyano)methyl)-2-methylphenyl)-2-hydroxybenzamide]
- KCC3 / Actin (KCC3; ZT-1a 0.3 uM): 2.04 and 1.923 and 2.091 and 1.84
- KCC3 / Actin (KCC3; ZT-1a 1 uM): 1.85 and 1.949 and 1.921 and 1.782
- KCC3 / Actin (KCC3; ZT-1a 3 uM): 1.87 and 1.905 and 1.972 and 1.73
- kinases of the 140 tested with >50% inhibition ([1]; 1 µM ZT-1a): only a single kinase
- share of the 140 kinases not inhibited by >70% ([1]; 1 µM ZT-1a vs DMSO control): 98%
- mortality in naive mice (C57BL/6J mice; 25 mg/kg i.p.): No mortality
- survival of ischemic stroke mice (C57BL/6J mice; 25 mg/kg i.p., Kaplan–Meier, n = 6): survived longer than Closantel-treated mice
- median survival of ischemic stroke mice (C57BL/6J mice; C57BL/6J, mouse, in vivo): 4 days
- pERK/GAPDH (fold veh-CL) (pERK1/2; Cytosol, CL, Fig S4d): 1.33 fold veh-CL and 1.29 fold veh-CL and 0.75 fold veh-CL
- pERK/Na K pump (fold veh-CL) (pERK1/2; CL, Fig S4d): 1.45 fold veh-CL and 1.52 fold veh-CL and 1.76 fold veh-CL
- pERK/Na K pump (fold veh-CL) (pERK1/2; IL, Fig S4d): 1.27 fold veh-CL and 2.10 fold veh-CL and 1.54 fold veh-CL
- p-ERK in ischemic brains (pERK1/2; ZT-1a 5.0 mg/kg): no marked inhibition
- NKCC1 / Na-K pumb (pNKCC1 (pThr203/207/212); CL hemisphere): 1.613 and 1.481 and 1.6 and 1.576 and 1.424 and 1.642
- pThr203/207/212 / NKCC1 (pNKCC1 (pThr203/207/212); CL hemisphere): 0.451 and 0.437 and 0.265 and 0.378 and 0.429 and 0.303
- NKCC1 / Na-K pumb (pNKCC1 (pThr203/207/212); IL hemisphere): 1.43 and 1.528 and 1.481 and 1.417 and 1.587 and 1.394
- pThr203/207/212 / NKCC1 (pNKCC1 (pThr203/207/212); IL hemisphere): 0.461 and 0.418 and 0.385 and 0.452 and 0.396 and 0.372
- reduction of ischemia-induced elevation of pNKCC1 (pNKCC1 (pThr203/207/212); compared with vehicle-control mice): 55–65%
- ischemia-induced increase of pNKCC1 (pNKCC1 (pThr203/207/212); post-stroke ZT-1a 5 mg/kg, 24 h reperfusion): prevented
- KCC4 / Actin (KCC4 pThr926/pThr980; [5]): 2.09 and 2.11 and 2.1 and 2.05 and 2.15 and 2.12
- KCC4 pThr926 / Actin (KCC4 pThr926/pThr980; [5]): 0.241 and 0.354 and 0.43 and 0.261 and 0.376 and 0.487
- KCC4 pThr980 / Actin (KCC4 pThr926/pThr980; [5]): 0.279 and 0.426 and 0.524 and 0.299 and 0.447 and 0.541
- reduction of post-IVH KCC4 phosphorylation at Thr926/Thr980 (KCC4 pThr926/pThr980; rat CPe, ICV ZT-1a): ~ 2 fold
- Corner test (Unilateral turns) ([2]; Day 1): 9 Unilateral turns (2×) and 10 Unilateral turns and 6 Unilateral turns (4×)
- Corner test (Unilateral turns) ([2]; Day 3): 6 Unilateral turns (2×) and 10 Unilateral turns and 7 Unilateral turns (3×) and 5 Unilateral turns
- Corner test (Unilateral turns) ([2]; Day 5): 6 Unilateral turns (5×) and 5 Unilateral turns (2×)
- Corner test (Unilateral turns) ([2]; Day 7): 6 Unilateral turns (4×) and 5 Unilateral turns (3×)
- Corner test (Unilateral turns) ([2]; Day -1 (baseline)): 5 Unilateral turns (5×) and 6 Unilateral turns (2×)
- corner test, turn preference/asymmetries ([2]; ZT-1a 5.0 mg/kg, days 1–7 post stroke): absence of asymmetries by day 7 post stroke
- % residual kinase activity (AMPK (hum); 1 µM): 126±4%
- % residual kinase activity (AMPK (hum); 10 µM): 108±4%
- AUC ([3]; ICR, intravenous, 5 mg/kg, naive mice): 2340 ng·h/mL
- half-life ([3]; ICR, intravenous, 5 mg/kg, naive mice, read-out: T1/2 (plasma half-life) (converted)): 108 min
- half-life ([3]; ICR, iv, 5 mg/kg, IV 5 mg/kg, ICR mice, read-out: t1/2 (converted)): 108 min
- bioavailability ([3]; ICR, oral, 10 mg/kg, naive mice): 2.2%
- half-life ([3]; ICR, po, 10 mg/kg, PO 10 mg/kg, ICR mice, read-out: t1/2 (converted)): 156 min
- AUC(0-inf) ([3]; IV 5 mg/kg, ICR mice): 2350 ng·h/mL
- AUC(0-t) ([3]; IV 5 mg/kg, ICR mice): 2340 ng·h/mL
- C0 ([3]; IV 5 mg/kg, ICR mice): 14900 ng/mL
- Cmax ([3]; IV 5 mg/kg, ICR mice): 6910 ng/mL
- Tmax ([3]; IV 5 mg/kg, ICR mice): 4.8 min
- clearance ([3]; IV 5 mg/kg, ICR mice): 35.5 mL/min/kg
- MRT inf ([3]; IV 5 mg/kg, ICR mice): 0.45 h
- Vd ([3]; IV 5 mg/kg, ICR mice, read-out: Vz): 0.948 L/kg
- AUC(0-inf) ([3]; PO 10 mg/kg, ICR mice): 105 ng·h/mL
- AUC(0-t) ([3]; PO 10 mg/kg, ICR mice): 97.3 ng·h/mL
- Cmax ([3]; PO 10 mg/kg, ICR mice): 94 ng/mL
- Tmax ([3]; PO 10 mg/kg, ICR mice): 15 min
- bioavailability ([3]; PO 10 mg/kg, ICR mice): 2.2%
- MRT inf ([3]; PO 10 mg/kg, ICR mice): 3.3 h
- KCC3 phosphorylation (pThr1048) in naive brains (KCC3 pThr1048): neither drug had reduced
- pTh1048 / KCC3 (KCC3 pThr1048; 10 mg/kg): 1.01 and 0.99 and 1 and 0.95
- pTh1048 / KCC3 (KCC3 pThr1048; 30 mg/kg): 1.05 and 0.97 and 0.9 and 0.96
- pTh1048 / KCC3 (KCC3 pThr1048; 50 mg/kg): 0.87 and 0.92 and 1.06 and 0.97
- pTh1048 / KCC3 (KCC3 pThr1048; 100 mg/kg): 0.94 and 0.87 and 0.99 and 0.9
- pSer373 / SPAK (SPAK phosphorylation; 10 mg/kg): 0.64 and 0.68 and 0.52 and 0.61
- pSer373 / SPAK (SPAK phosphorylation; 30 mg/kg): 0.55 and 0.6 and 0.56 and 0.52
- pSer373 / SPAK (SPAK phosphorylation; 50 mg/kg): 0.56 and 0.65 and 0.61 and 0.53
- pSer373 / SPAK (SPAK phosphorylation; 100 mg/kg): 0.67 and 0.54 and 0.58 and 0.5
- GSK-3β Ser9 phosphorylation ([4]; 3 µM ZT-1a, HEK-293 cells): not inhibited
- GSK3b pSer9 / Actin ([4]; ZT-1a 0.3 uM): 0.56 and 0.601 and 0.586 and 0.538
- GSK3b pSer9 / Actin ([4]; ZT-1a 1 uM): 0.58 and 0.576 and 0.603 and 0.529
- GSK3b pSer9 / Actin ([4]; ZT-1a 3 uM): 0.53 and 0.5901 and 0.613 and 0.56
